Test system: rat DHT-PCOS model
Test: In vivo assay 1: DHT driven rat PCOS model
Set-up: species or system Han-Wistar rats
Details: DHT driven rat PCOS model; 26 days of drug administration
Experimental: In Vivo Assay 1: GPR84 Ligand and Antagonist Characterization in PCOS Model
The efficacy of Example 3-2 in vivo on the treatment of POCS was measured in the DHT driven rat PCOS model. At 3 weeks of age, Han-Wistar rats were randomly divided into three experimental groups [control (n=10), DHT (n=10), and DHT plus Example 3-2 (n=10)] and implanted s.c. with 60-d continuous-DHT-release pellets (80 μg/d, Bayer AG, Germany). The dose of DHT was chosen to mimic the hyperandrogenic state in women with PCOS. Controls received identical pellets lacking the bioactive DHT molecule. Animal received a standard chow, only for the last week standard show was replaced by a high fat diet. Rats were weighted bi-weekly from 21 d of age. The study was concluded after 26 days of drug administration. […] Statistical analysis was performed with one-way analysis of variance, followed by Bonferroni's multiple comparison test against vehicle control groups using the GraphPad PRISM software, *p<0.05.

SMILES | weight gain
Cc1c(C(=O)NC[C@@H]2CCCO2)oc2c1-c1nn(Cc3ccccn3)cc1CC2 [Example 3-2, 8-methyl-2-(pyridin-2-ylmethyl)-N-[(2S)-tetrahydrofuran-2-ylmethyl]-4,5-dihydro-2H-furo[2,3-g]indazole-7-carboxamide] | gained less weight compared to the untreated control

Same assay, conditions: rat DHT-PCOS model; p.o. 60 mg/kg morning dose + s.c. 60 mg/kg evening dose; 26 days of drug administration; DHT-Vehicle group 111%

SMILES | Relative weight vs. Vehicle control
Cc1c(C(=O)NC[C@@H]2CCCO2)oc2c1-c1nn(Cc3ccccn3)cc1CC2 [Example 3-2, 8-methyl-2-(pyridin-2-ylmethyl)-N-[(2S)-tetrahydrofuran-2-ylmethyl]-4,5-dihydro-2H-furo[2,3-g]indazole-7-carboxamide] | 103% * (significant vs.

Test system: mouse CFA model of inflammation
Test: In vivo assay 2: CFA pain model, dynamic weight-bearing (DWB)
Details: 3x 20 mg p.o., DWB 24 h after CFA, vehicle 43 +/- 20, not significant vs. vehicle group
Experimental: In Vivo Assay 2: Effects of Example 3-2 in the CFA Pain Model
The efficacy of Example 3-2 in vivo on inflammatory pain was measured in inflamed paws after administration of complete Freund's adjuvant (CFA) (24 h) in the dynamic weight-bearing (DWB) model. The effects of repeated preventive treatment with Example 3-2 on pain following repeated oral administration (3×) in the mouse CFA model of inflammation were investigated using a preventive setting. The GPR84 antagonist Example 3-2 (20 or 60 mg/kg, 3× doses) was administered 2 h before injection of CFA and 6-8 h later at day 0. At 24 h after CFA application, the third dose of Example 3-2 was given 2 h before DWB testing. Statistical analysis was performed with one-way analysis of variance, followed by Bonferroni's multiple comparison test against vehicle control groups using the GraphPad PRISM software, *p<0.05.

SMILES | Weight distribution (% weight on injected paw) mean +/- SD
Cc1c(C(=O)NC[C@@H]2CCCO2)oc2c1-c1nn(Cc3ccccn3)cc1CC2 [Example 3-2, 8-methyl-2-(pyridin-2-ylmethyl)-N-[(2S)-tetrahydrofuran-2-ylmethyl]-4,5-dihydro-2H-furo[2,3-g]indazole-7-carboxamide] | 60 +/− 21 (not significant vs. vehicle group) %

Same assay, conditions: 3x 60 mg p.o., DWB 24 h after CFA, vehicle 43 +/- 20, significant vs. vehicle group

SMILES | Weight distribution (% weight on injected paw) mean +/- SD
Cc1c(C(=O)NC[C@@H]2CCCO2)oc2c1-c1nn(Cc3ccccn3)cc1CC2 [Example 3-2, 8-methyl-2-(pyridin-2-ylmethyl)-N-[(2S)-tetrahydrofuran-2-ylmethyl]-4,5-dihydro-2H-furo[2,3-g]indazole-7-carboxamide] | 83 +/− 18 (significant vs. vehicle group) %

Molecular target: T1, human GPR84 receptor (Homo sapiens, UniProt Q9NQS5)
T1 construct: frozen aliquots prepared by acCELLerate; host or cells: CHO-K1
Test: cAMP HTRF assay for identification of cellular GPR84 antagonists
Type: cell-based
Details: CHO-K1 cells stably expressing human GPR84; Forskolin + agonist 6-OAU (EC80); average or median values
Summary of the method: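 Forskolin-stimulated CHO-K1 cells stably expressing human GPR84, agonist-suppressed cAMP measured by HTRF (665/620 ratio) after lysis. Compounds at 11 concentrations, 20 μM to 0.07 nM, duplicate; normalized to DMSO and no-agonist controls; IC50 by 4-parameter fit.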

T1 sequence (Q9NQS5 whole entry): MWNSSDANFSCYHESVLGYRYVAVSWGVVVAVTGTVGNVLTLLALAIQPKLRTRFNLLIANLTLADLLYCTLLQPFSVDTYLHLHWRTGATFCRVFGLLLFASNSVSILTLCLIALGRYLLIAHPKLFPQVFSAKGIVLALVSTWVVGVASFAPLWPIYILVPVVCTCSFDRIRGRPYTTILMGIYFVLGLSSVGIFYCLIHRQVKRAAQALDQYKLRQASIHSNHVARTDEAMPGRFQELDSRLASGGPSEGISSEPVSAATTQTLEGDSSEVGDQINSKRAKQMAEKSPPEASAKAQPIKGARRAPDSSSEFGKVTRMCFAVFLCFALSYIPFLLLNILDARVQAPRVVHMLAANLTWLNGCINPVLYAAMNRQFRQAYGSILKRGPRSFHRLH

SMILES | IC50 [nM]
Cc1c(C(=O)NC[C@@H]2CCCO2)oc2c1-c1nn(Cc3ccccn3)cc1CC2 [Example 3-2, 8-methyl-2-(pyridin-2-ylmethyl)-N-[(2S)-tetrahydrofuran-2-ylmethyl]-4,5-dihydro-2H-furo[2,3-g]indazole-7-carboxamide] | 110
Cc1c(C(=O)NCc2nocc2C(=O)O)oc2c1-c1nn(Cc3ccccn3)cc1CC2 [Example 31, 3-[({[8-methyl-2-(pyridin-2-ylmethyl)-4,5-dihydro-2H-furo[2,3-g]indazol-7-yl]carbonyl}amino)methyl]-1,2-oxazole-4-carboxylic acid] | > 20000
Cc1c(C(=O)NC[C@@H]2CCCO2)oc2c1-c1nn(C[C@H]3COCCO3)cc1C1(CCC1)C2 [Example 143, 2′-[(2S)-1,4-dioxan-2-ylmethyl]-8′-methyl-N-[(2S)-tetrahydrofuran-2-ylmethyl]-2′,5′-dihydrospiro[cyclobutane-1,4′-furo[2,3-g]indazole]-7′-carboxamide] | 77
Cc1c(C(=O)NC[C@@H]2COCCO2)oc2c1-c1nn(C[C@H]3COCCO3)cc1C1(CCC1)C2 [Example 145] | 110
Cc1c(C(=O)NCc2ccn(C)n2)oc2c1-c1nn(Cc3ccccn3)cc1CC2 [Example 34, 8-methyl-N-[(1-methyl-1H-pyrazol-3-yl)methyl]-2-(pyridin-2-ylmethyl)-4,5-dihydro-2H-furo[2,3-g]indazole-7-carboxamide] | 280
Cc1ncc(CNC(=O)c2oc3c(c2C(F)(F)F)-c2nn(C[C@H]4COCCO4)cc2[C@H](C)C3)cn1 (single isomer, unassigned) [Example 302, (4R or 4S)-2-{[(2S)-1,4-dioxan-2-yl]methyl}-4-methyl-N-[(2-methylpyrimidin-5-yl)methyl]-8-(trifluoromethyl)-4,5-dihydro-2H-furo[2,3-g]indazole-7-carboxamide] | 1510
O=C(NC[C@H]1COCCO1)c1oc2c(c1C(F)(F)F)-c1nn(C[C@@H]3COCCO3)cc1CC2 [Example 301, 2-{[(2R)-1,4-dioxan-2-yl]methyl}-N-{[(2S)-1,4-dioxan-2-yl]methyl}-8-(trifluoromethyl)-4,5-dihydro-2H-furo[2,3-g]indazole-7-carboxamide] | 723
O=C(NCc1cocn1)c1oc2c(c1C(F)(F)F)-c1nn(C[C@H]3COCCO3)cc1CC2 [Example 239, 2-[(2S)-1,4-Dioxan-2-ylmethyl]-N-(1,3-oxazol-4-ylmethyl)-8-(trifluormethyl)-4,5-dihydro-2H-furo[2,3-g]indazol-7-carboxamide] | 136
CC1(C)Cc2oc(C(=O)NC[C@@H]3COCCO3)c(C(F)(F)F)c2-c2nn(C[C@H]3COCCO3)cc21 [Example 267, N-{[(2R)-1,4-dioxan-2-yl]methyl}-2-{[(2S)-1,4-dioxan-2-yl]methyl}-4,4-dimethyl-8-(trifluoromethyl)-4,5-dihydro-2H-furo[2,3-g]indazole-7-carboxamide] | 57
Cc1c(C(=O)NCc2ccon2)oc2c1-c1nn(CC3COc4ncccc4O3)cc1CC2 (single isomer, unassigned) [Example 55-1] | 340
O=C(NCCc1ccccn1)c1oc2c(c1C(F)(F)F)-c1nn(C[C@H]3COCCO3)cc1CC2 [Example 233, 2-[(2S)-1,4-Dioxan-2-ylmethyl]-N-[2-(pyridin-2-yl)ethyl]-8-(trifluormethyl)-4,5-dihydro-2H-furo[2,3-g]indazol-7-carboxamide] | 1120
Cc1c(C(=O)NCC2CCC(=O)O2)oc2c1-c1nn(Cc3ccccn3)cc1CC2 (single isomer, unassigned) [Example 39-2] | 7050

Now those with a lower IC50, led by results:

IC50 [nM] | SMILES
45 | Cc1c(C(=O)NC[C@@H]2CCCO2)oc2c1-c1nn(Cc3noc(C4CC4)n3)cc1CC2 [Example 137, 2-[(5-cyclopropyl-1,2,4-oxadiazol-3-yl)methyl]-8-methyl-N-[(2S)-tetrahydrofuran-2-ylmethyl]-4,5-dihydro-2H-furo[2,3-g]indazole-7-carboxamide]
43 | Cc1c(C(=O)NC[C@@H]2COCCO2)oc2c1-c1nn(Cc3noc(C4CC4)n3)cc1CC2 [Example 138]
22 | Cc1ccc(Cn2cc3c(n2)-c2c(oc(C(=O)NC[C@@H]4CCCO4)c2C)CC32CCC2)nc1 [Example 203]
17 | Cc1c(C(=O)NC[C@@H]2CCCO2)oc2c1-c1nn(CC3(C)COC3)cc1CC2 [Example 93, 8-methyl-2-[(3-methyloxetan-3-yl)methyl]-N-[(2S)-tetrahydrofuran-2-ylmethyl]-4,5-dihydro-2H-furo[2,3-g]indazole-7-carboxamide]
16 | Cc1ccc(Cn2cc3c(n2)-c2c(oc(C(=O)NC[C@@H]4COCCO4)c2C)CC32CC2)cn1 [Example 210]
13 | Cc1c(C(=O)NC[C@@H]2CCCO2)oc2c1-c1nn(CC3(F)CN(C(=O)OCc4ccccc4)C3)cc1CC2 [Example 155, benzyl 3-fluoro-3-[(8-methyl-7-{[(2S)-tetrahydrofuran-2-ylmethyl]carbamoyl}-4,5-dihydro-2H-furo[2,3-g]indazol-2-yl)methyl]azetidine-1-carboxylate]
8 | Cc1ccc(Cn2cc3c(n2)-c2c(oc(C(=O)NC[C@@H]4CCCO4)c2C(F)(F)F)CC32CCC2)nc1 [Example 277, 2′-[(5-Methylpyridin-2-yl)methyl]-N-[(2S)-tetrahydrofuran-2-ylmethyl]-8′-(trifluormethyl)-2′,5′-dihydrospiro[cyclobutan-1,4′-furo[2,3-g]indazol]-7′-carboxamide]
7 | C[C@@H]1Cc2oc(C(=O)NC[C@@H]3CCCO3)c(C(F)(F)F)c2-c2nn(CC3CCN(C(=O)C4(O)CC4)CC3)cc21 (single isomer, unassigned) [Example 293, (4R or 4S)-2-{[1-(1-hydroxycyclopropane-1-carbonyl)piperidin-4-yl]methyl}-4-methyl-N-{[(2S)-oxolan-2-yl]methyl}-8-(trifluoromethyl)-4,5-dihydro-2H-furo[2,3-g]indazole-7-carboxamide]
5 | Cc1ccc(Cn2cc3c(n2)-c2c(oc(C(=O)NC[C@@H]4CCCO4)c2C(F)(F)F)CC3C)cn1 (mixture of isomers) [Example 253, (4±)-4-methyl-2-[(6-methylpyridin-3-yl)methyl]-N-{[(2S)-oxolan-2-yl]methyl}-8-(trifluoromethyl)-4,5-dihydro-2H-furo[2,3-g]indazole-7-carboxamide]

Reference: patent publication US12570666B2, “Furoindazole derivatives” (Bayer Aktiengesellschaft, priority 2019, dated 2026)
